In general, IC50 refers to the concentration at which inhibition is half-maximal. High values mean lower potency, low ones higher potency.

This note sets out measurements from patent US11312705B2, “Heteroaryl[4,3-C]pyrimidine-5-amine derivative, preparation method therefor, and medical uses thereof” (Jiangsu Hengrui Medicine Co., Ltd., priority 2017, dated 2022).

The target of test [1] is adenosine A2b receptor (A2bR) (Homo sapiens (Human), UniProt P29275). The experiment in a line: Inhibition of adenosine A2b receptor cAMP signaling pathway (HTRF cAMP, CHO-K1/A2bR cells). It is filed as cell-based. Conditions: Table 3; for IC50: CHO-K1/A2bR cells, ethyl carbazole 1 μM, cAMP HTRF. Put shortly:
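CHO-K1 cells expressing human A2bR were preincubated with compound (0-100000 nM final) for 30 min at room temperature in HEPES/BSA buffer with rolipram and adenosine deaminase. They were then stimulated with 1 μM […] for 30 min. Intracellular cAMP was measured by HTRF after 1 h detection.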
In general terms: In TR-FRET formats the signal depends on donor and acceptor labels being close together.

Test [2] concerns the target adenosine A1 receptor (A1R) (Homo sapiens (Human), UniProt P30542). The experiment in a line: Inhibition of adenosine A1 receptor cAMP signaling pathway (HTRF cAMP, CHO-K1/A1R cells). It is filed as cell-based. Conditions: Table 2; for IC50: CHO-K1/A1R cells, forskolin 10 μM, CPA 10 nM, cAMP HTRF; for IC50 ratio (A1R/A2aR): selectivity A1R over A2aR. From the text: Test Example 1. Determination of the inhibition activity of the compounds of the present invention on the adenosine A2a receptor (A2aR) cAMP signaling pathway, the adenosine A2b receptor (A2bR) cAMP signaling pathway, the adenosine A1 receptor (A1R) cAMP signaling pathway and the adenosine A3 receptor (A3R) cAMP signaling pathway.
The inhibition activity of the compounds of the present invention on the adenosine A2a receptor cAMP signaling pathway, the adenosine A2b receptor cAMP signaling pathway, the adenosine A1 receptor cAMP signaling pathway and the adenosine A3 receptor cAMP signaling pathway was determined by the following method. The experimental method is briefly described as follows:
2.2 Adenosine A1 receptor
CHO-K1/A1R cells were cultured in DMEM/F12 medium containing 10% fetal bovine serum and 1 mg/ml G418. The cells were digested with the cell separation buffer during the experiment. The cells were then resuspended in the balanced salt buffer containing 20 mM HEPES and 0.1% bovine serum albumin and counted, and the cell density was adjusted to 5×10^5 cells/ml. In the 384-well plate, each well was added with 12.5 μl of cell suspension, and 6.25 μl of test compound (4× concentration) formulated with the balanced salt buffer containing 20 mM HEPES, 0.1% bovine serum albumin, 54 μM rolipram and 2.7 U/ml adenosine deaminase, and the plate was incubated at room temperature for 30 minutes. Each well was then added with 6.25 μl of forskolin and N6-cyclopentyladenosine (4× concentration) formulated with the balanced salt buffer containing 20 mM HEPES, 0.1% bovine serum albumin, 54 μM rolipram and 2.7 U/ml adenosine deaminase, and the plate was incubated at room temperature for 30 minutes. The final concentrations of the compounds were: 100000, 10000, 1000, 100, 10, 1, 0.1 and 0 nM. The final concentration of forskolin was 10 μM. The final concentration of CPA was 10 nM. Intracellular cAMP concentration was detected with the cAMP dynamic 2 kit. cAMP-d2 and Anti-cAMP-Eu-Cryptate were diluted respectively with the cAMP lysis buffer at a ratio of 1:4. Each well was added with 12.5 μl of diluted cAMP-d2, followed by addition of 12.5 μl of diluted Anti-cAMP-Eu-Cryptate, and the plate was incubated at room temperature in the dark for 1 hour. The HTRF signal values were read by the PHERAstar multi-function microplate reader.

Sequence of adenosine A1 receptor (A1R) (P30542 whole entry): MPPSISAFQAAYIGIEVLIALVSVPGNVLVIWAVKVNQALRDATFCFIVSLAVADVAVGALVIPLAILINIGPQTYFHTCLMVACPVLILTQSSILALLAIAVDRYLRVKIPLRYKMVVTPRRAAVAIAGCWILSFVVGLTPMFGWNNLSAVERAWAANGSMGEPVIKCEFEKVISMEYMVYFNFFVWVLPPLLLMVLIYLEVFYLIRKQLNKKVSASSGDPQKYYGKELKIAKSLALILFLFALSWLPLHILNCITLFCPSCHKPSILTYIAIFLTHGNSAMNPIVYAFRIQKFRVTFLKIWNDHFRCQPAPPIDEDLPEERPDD
Sequence of adenosine A2b receptor (A2bR) (P29275 whole entry): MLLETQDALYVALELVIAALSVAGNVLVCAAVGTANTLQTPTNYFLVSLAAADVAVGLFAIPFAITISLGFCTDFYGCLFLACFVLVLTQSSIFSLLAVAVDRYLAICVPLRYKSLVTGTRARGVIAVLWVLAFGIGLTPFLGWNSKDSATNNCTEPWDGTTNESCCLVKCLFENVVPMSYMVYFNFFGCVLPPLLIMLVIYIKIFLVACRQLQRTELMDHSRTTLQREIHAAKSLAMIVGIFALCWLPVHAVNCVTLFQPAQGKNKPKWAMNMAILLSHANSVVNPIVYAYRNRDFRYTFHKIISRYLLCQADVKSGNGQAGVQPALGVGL

Regarding `Cc1cc(-c2c(-c3ccc(F)cc3F)nc(N)n3cnnc23)cc(C(F)F)n1` [Example 20, 8-(2-(Difluoromethyl)-6-methylpyridin-4-yl)-7-(2,4-difluorophenyl)-[1,2,4]triazolo[4,3-c]pyrimidin-5-amine], the IC50 in test [1] came out at 522 nM; in test [2] it was 519 nM. For the same molecule, in test [1] (selectivity A2bR over A2aR), the “IC50 ratio (A2bR/A2aR)” value is given as 224. For the same molecule, in test [2], the “IC50 ratio (A1R/A2aR)” value is 223.

In test [1], `Cc1cc(-c2c(-c3ccc(F)cc3F)nc(N)n3cnnc23)cc(C(F)(F)F)n1` [Example 18, 7-(2,4-Difluorophenyl)-8-(2-methyl-6-(trifluoromethyl)pyridin-4-yl)-[1,2,4]triazolo[4,3-c]pyrimidin-5-amine] had an IC50 of 793 nM. In test [2], the IC50 is 409 nM and the “IC50 ratio (A1R/A2aR)” value was 103.
